Data on three molecules can be found in patent US7622482B2, “Chemical compounds” (AstraZeneca, priority 2005, dated 2009).

Usually IC50 stands for the midpoint of a concentration-inhibition curve.

This experiment deals with T1, human Trk A kinase (Homo sapiens, UniProt P04629).
T1 construct: His; made in house; host or cells: SF9 insect cells
The experiment can be described thus: Trk A kinase assay (Alphascreen). In kind it is biochemical. Conditions: intracellular domain of HIS-tagged human Trk A, 70 μM ATP, 20 minutes, room temperature, read-out: Trk inhibitory activity IC50. The procedure: Trk A kinase activity was measured for its ability to phosphorylate synthetic tyrosine residues within a generic polypeptide substrate using an Amplified Luminescent Proximity Assay (Alphascreen) technology (PerkinElmer, 549 Albany Street, Boston, Mass.).
To measure Trk A kinase activity, the intracellular domain of a HIS-tagged human Trk A kinase (amino acids 442-796 of Trk A, Swiss-Prot Primary Accession Number P04629) was expressed in SF9 cells and purified using standard nickel column chromatography. After incubation of the kinase with a biotinylated substrate and adenosine triphosphate (ATP) for 20 minutes at room temperature, the kinase reaction was stopped by the addition of 30 mM ethylenediaminetetraacetic acid (EDTA). The reaction was performed in 384 well microtitre plates and the reaction products were detected with the addition of strepavidin coated Donor Beads and phosphotyrosine-specific antibodies coated Acceptor Beads using the EnVision Multilabel Plate Reader after an overnight incubation at room temperature.
Background: Alpha assays give light when donor and acceptor beads are brought close together.

T1 sequence (P04629 442-796): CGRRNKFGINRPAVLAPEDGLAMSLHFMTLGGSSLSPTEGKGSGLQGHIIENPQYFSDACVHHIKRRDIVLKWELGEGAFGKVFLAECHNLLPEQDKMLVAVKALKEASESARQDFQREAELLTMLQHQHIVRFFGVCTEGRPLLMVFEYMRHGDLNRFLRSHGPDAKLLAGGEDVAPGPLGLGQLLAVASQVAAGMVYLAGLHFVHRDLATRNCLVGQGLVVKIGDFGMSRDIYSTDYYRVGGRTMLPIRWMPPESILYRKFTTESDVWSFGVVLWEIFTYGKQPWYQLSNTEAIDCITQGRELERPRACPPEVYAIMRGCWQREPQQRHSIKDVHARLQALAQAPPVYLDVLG

As to `CC(C)Oc1cc(Nc2ncc3ncn([C@@H](C)c4ccc(F)cc4)c3n2)n[nH]1` [Example 5, 9-[(1S)-1-(4-Fluorophenyl)ethyl]-N-(5-isopropoxy-1H-pyrazol-3-yl)-9H-purin-2-amine], the IC50 turned out to be 63 nM. `C[C@@H](c1ccc(F)cc1)n1cnc2ccc(Nc3cc(C4CC4)[nH]n3)nc21` [Example 6, (S)—N-(5-Cyclopronyl-1H-pyrazol-3-yl)-3-(1-(4-fluorophenyl)ethyl)-3H-imidazo[4,5-b]pyridin-5-amine]: the half-maximal inhibitory concentration (IC50) was 49 nM. Take `Fc1ccc(Cn2cnc3cc(Cl)c(Nc4cc(C5CC5)[nH]n4)nc32)cc1` [Example 18, 3-(4-Fluorobenzyl)-6-chloro-N-(5-cyclopropyl-1H-pyrazol-3-yl)-3H-imidazo[4,5-b]pyridin-5-amine]: the IC50 is 11 nM.
